# Laboratory results: patent publication US8268821B2, “Methods and compositions” (priority 2003, dated 2012)
# Tested on: cancer-related neuropathic pain
# Test: Open label dose escalation study of flupirtine, case studies JE and RM
# Details: for WHO PERFORMANCE STATUS: 0=fully active, 4=completely disabled; for WHO PERFORMANCE STATUS / SCORE SLEEP / SCORE POOR CONCENTRATION: day 1 baseline 3; for neuropathic dwascriminant function score: >0 = neuropathic, day 1 baseline 2.448; for freezing pain score / score for increased pain due to touch / score for increased pain due to weather changes / squeezing pain score: day 1 baseline 0; for burning pain score: day 1 baseline 90; for electric pain score / for shooting pain score / numbness score / score for overly sensitive to touch / tingling pain score / unpleasant pain score: day 1 baseline 95; for overwhelming pain score: day 1 baseline 98; for SCORE MOOD / SCORE RELATIONSHIPS / SCORE SLEEP / SCORE GENERAL ACTIVITY / SCORE WALKING / SCORE ENJOYMENT / SCORE TOTAL ACTIVITY: pain interference 1-10; for SCORE MOOD / SCORE RELATIONSHIPS / SCORE CONSTIPATION / SCORE INDIGESTION / LEAST PAIN LAST 24 HRS / PAIN SCORE RIGHT NOW: day 1 baseline 1; for SCORE GENERAL ACTIVITY: day 1 baseline 5; for SCORE WALKING: day 1 baseline 7; for SCORE ENJOYMENT / SCORE TOTAL ACTIVITY / AVERAGE PAIN LAST 24 HOURS: day 1 baseline 8; for SCORE CONSTIPATION / SCORE INDIGESTION / SCORE NAUSEA / SCORE UN[…] GAIT / SCORE POOR CONCENTRATION / SCORE DROWSINESS / SCORE POOR APPETITE: scale 1-4; for SCORE NAUSEA / SCORE UN[…] GAIT: day 1 baseline 2; for SCORE DROWSINESS / SCORE POOR APPETITE: day 1 baseline 4; for LEAST PAIN LAST 24 HRS / PAIN SCORE RIGHT NOW / AVERAGE PAIN LAST 24 HOURS / WORST PAIN SCORE LAST 24 HOURS: scale to 10; for WORST PAIN SCORE LAST 24 HOURS: day 1 baseline 10
# [1] = JE day 2, flupirtine 100 mg qid
# [2] = JE day 3, flupirtine 100 mg qid
# [3] = JE day 4, flupirtine 200 mg qid
# [4] = JE day 5, flupirtine 100 mg qid
structure (smiles),measurement,setting,value
CCOC(=O)Nc1ccc(NCc2ccc(F)cc2)nc1N [flupirtine],WHO PERFORMANCE STATUS,[1],3
same,neuropathic dwascriminant function score,[1],−1.238
same,freezing pain score,[1],0
same,score for increased pain due to touch,[1],0
same,score for increased pain due to weather changes,[1],0
same,squeezing pain score,[1],0
same,burning pain score,[1],20
same,electric pain score,[1],0
same,for shooting pain score,[1],10
same,numbness score,[1],0
same,score for overly sensitive to touch,[1],0
same,tingling pain score,[1],0
same,unpleasant pain score,[1],0
same,overwhelming pain score,[1],0
same,SCORE MOOD,[1],1
same,SCORE RELATIONSHIPS,[1],1
same,SCORE SLEEP,[1],1
same,SCORE GENERAL ACTIVITY,[1],1
same,SCORE WALKING,[1],1
same,SCORE ENJOYMENT,[1],1
same,SCORE TOTAL ACTIVITY,[1],1
same,SCORE CONSTIPATION,[1],3
same,SCORE INDIGESTION,[1],1
same,SCORE NAUSEA,[1],1
same,SCORE UN[…] GAIT,[1],1
same,SCORE POOR CONCENTRATION,[1],1
same,SCORE DROWSINESS,[1],4
same,SCORE POOR APPETITE,[1],1
same,LEAST PAIN LAST 24 HRS,[1],0
same,PAIN SCORE RIGHT NOW,[1],0
same,AVERAGE PAIN LAST 24 HOURS,[1],2
same,WORST PAIN SCORE LAST 24 HOURS,[1],2
same,WHO PERFORMANCE STATUS,[2],2
same,neuropathic dwascriminant function score,[2],−1.408
same,freezing pain score,[2],0
same,score for increased pain due to touch,[2],0
same,score for increased pain due to weather changes,[2],0
same,squeezing pain score,[2],0
same,burning pain score,[2],0
same,electric pain score,[2],0
same,for shooting pain score,[2],0
same,numbness score,[2],0
same,score for overly sensitive to touch,[2],0
same,tingling pain score,[2],0
same,unpleasant pain score,[2],0
same,overwhelming pain score,[2],0
same,SCORE MOOD,[2],1
same,SCORE RELATIONSHIPS,[2],1
same,SCORE SLEEP,[2],1
same,SCORE GENERAL ACTIVITY,[2],1
same,SCORE WALKING,[2],1
same,SCORE ENJOYMENT,[2],1
same,SCORE TOTAL ACTIVITY,[2],1
same,SCORE CONSTIPATION,[2],1
same,SCORE INDIGESTION,[2],1
same,SCORE NAUSEA,[2],1
same,SCORE UN[…] GAIT,[2],1
same,SCORE POOR CONCENTRATION,[2],1
same,SCORE DROWSINESS,[2],3
same,SCORE POOR APPETITE,[2],1
same,LEAST PAIN LAST 24 HRS,[2],0
same,PAIN SCORE RIGHT NOW,[2],0
same,AVERAGE PAIN LAST 24 HOURS,[2],0
same,WORST PAIN SCORE LAST 24 HOURS,[2],0
same,WHO PERFORMANCE STATUS,[3],3
same,neuropathic dwascriminant function score,[3],−1.408
same,freezing pain score,[3],0
same,score for increased pain due to touch,[3],0
same,score for increased pain due to weather changes,[3],0
same,squeezing pain score,[3],0
same,burning pain score,[3],0
same,electric pain score,[3],0
same,for shooting pain score,[3],0
same,numbness score,[3],0
same,score for overly sensitive to touch,[3],0
same,tingling pain score,[3],0
same,unpleasant pain score,[3],0
same,overwhelming pain score,[3],0
same,SCORE MOOD,[3],1
same,SCORE RELATIONSHIPS,[3],1
same,SCORE SLEEP,[3],1
same,SCORE WALKING,[3],1
same,SCORE ENJOYMENT,[3],1
same,SCORE TOTAL ACTIVITY,[3],1
same,SCORE CONSTIPATION,[3],3
same,SCORE INDIGESTION,[3],1
same,SCORE NAUSEA,[3],1
same,SCORE UN[…] GAIT,[3],4
same,SCORE POOR CONCENTRATION,[3],2
same,SCORE DROWSINESS,[3],4
same,SCORE POOR APPETITE,[3],1
same,LEAST PAIN LAST 24 HRS,[3],0
same,PAIN SCORE RIGHT NOW,[3],0
same,AVERAGE PAIN LAST 24 HOURS,[3],0
same,WORST PAIN SCORE LAST 24 HOURS,[3],0
same,WHO PERFORMANCE STATUS,[4],4
same,neuropathic dwascriminant function score,[4],−1.408
same,freezing pain score,[4],0
same,score for increased pain due to touch,[4],0
same,score for increased pain due to weather changes,[4],0
same,squeezing pain score,[4],0
same,burning pain score,[4],0
same,electric pain score,[4],0
same,for shooting pain score,[4],0
same,numbness score,[4],0
same,score for overly sensitive to touch,[4],0
same,tingling pain score,[4],0
same,unpleasant pain score,[4],0
same,overwhelming pain score,[4],0
same,SCORE MOOD,[4],1
same,SCORE RELATIONSHIPS,[4],1
same,SCORE SLEEP,[4],1
same,SCORE GENERAL ACTIVITY,[4],1
